Assay results as given in publication PMC12561670, “Isolation of Dual-Active Drugs with Anticancer and Antibacterial Activities That Target Both Tubulin and FtsZ” (Antibiotics, 2025).
Values after ≈ are worked out from the molar mass of the structure shown. Where two headings read alike, the source gives them in different places.

Tests used:
[1] = system: E. coli; assay: In vivo antibacterial activity, mouse peritoneal infection; parameters: species or system CD-1 male mice
Description: SPF grade CD-1 male mice weighing 30 ± 3 g were purchased from Shanghai Slake Experimental Animal Co., Ltd. (Shanghai, China). […] Immediately following this, the mice were intraperitoneally injected with the test compounds. Each experimental group consisted of five mice, with each compound being tested at two distinct concentration gradients (determined based on the minimum inhibitory concentration, MIC). A separate group received physiological saline as a negative control. The subsequent assessment focused on evaluating the therapeutic potential of these drugs against bacterial infections. On the first and third days post-administration, 2 mL of sterile physiological saline was injected into the peritoneal cavity of each mouse. After a gentle two-minute dilution under sterile conditions, the abdominal fluid was extracted for bacterial enumeration using the plate counting method. Furthermore, the clinical manifestations of each mouse group, encompassing mental status, appetite, and other relevant parameters, were meticulously observed over a seven-day period. On the seventh day, the mice were euthanized, and a thorough macroscopic examination was conducted to assess the pathological changes in various vital organs.

[2] = system: B. subtilis; assay: Phase-contrast microscopy, cell division inhibition; assay type: cell-based; settings: 64 μM, 4 h
Description: Cell Division Inhibitory Screening Assay Cell division inhibitory activity of compounds was conducted as below. […] Afterwards, 1 mL of the sample was centrifuged at 15,000× g for 3 min at room temperature, and the bacterial pellets were washed with 1 mL of PBS before re-centrifugation. The final bacterial pellets obtained were resuspended in 5 mL PBS. 20 μL of bacterial suspension was transferred to slides for microscopy. Cell morphology was estimated by using the phase-contrast method of Olympus IX71 microscopy (Olympus Corporation, Tokyo, Japan) with 400× magnification.

[3] = Cytotoxicity, CCK8; assay type: cell-based; settings: human, 12 h
Description: The absorbance of 450 nm was measured in an ELISA reader (BioTek-Synergy 4, USA). Then, cell viability was calculated, and the corresponding images were drawn with GraphPad Prism 9.

[4] = system: E. coli (ATCC 8739); assay: MIC, broth microdilution; assay type: cell-based; settings: Escherichia coli, ATCC8739; broth microdilution, 18 h, 37 °C; read-out: MIC E. coli (ATCC 8739)
[5] = target: T1, FtsZ (Staphylococcus aureus, UniProt P0A031); assay: Sedimentation assay of FtsZ polymerization; assay type: biochemical; settings: 50 μM compound, 5 μM FtsZ, 37 °C 30 min
T1 construct: His tag; made in house; host or cells: E. coli BL21(DE3)
T1 sequence (P0A031 1-390): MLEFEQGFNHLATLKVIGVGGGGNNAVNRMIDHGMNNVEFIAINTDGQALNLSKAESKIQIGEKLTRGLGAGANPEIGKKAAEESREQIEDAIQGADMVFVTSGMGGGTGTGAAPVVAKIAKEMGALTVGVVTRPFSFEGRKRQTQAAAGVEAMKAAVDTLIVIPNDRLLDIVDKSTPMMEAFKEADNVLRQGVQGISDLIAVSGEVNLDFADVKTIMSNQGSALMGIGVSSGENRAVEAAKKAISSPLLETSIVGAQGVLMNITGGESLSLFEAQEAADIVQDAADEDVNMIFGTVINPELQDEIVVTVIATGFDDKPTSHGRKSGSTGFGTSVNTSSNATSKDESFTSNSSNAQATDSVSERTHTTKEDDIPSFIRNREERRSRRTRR
Description: Sedimentation assay was also conducted for the influence of compounds on FtsZ polymerization. FtsZ (5 μM) was polymerized in a buffer containing 25 mM Pipes buffer (pH 6.8) and 3 mM MgSO4 in the […] of DMSO or compounds (50 μM). After the addition of 4 mM GTP, the sample was instantly placed at 37 °C for 30 min. Then, the polymers were collected by centrifuging for 30 min at 25 °C. The protein concentration in the supernatant was determined using the Bradford quantification method, with bovine serum albumin (BSA) as the standard. The experiment was performed in triplicate, and the average absorbance is shown.

[6] = system: S. aureus BNCC336423; assay: Time–killing curve; assay type: cell-based; settings: S. aureus BNCC336423, concentrations of 4× the MIC or greater
Description: S. aureus BNCC336423 was employed for the time–killing curve study. […] Meanwhile, DMSO with an equivalent volume was added to the vehicle control tube. The cultures were then subjected to shaking incubation at 37 °C. Subsequently, cultures were taken out at predetermined time intervals (0, 1, 2, 4, 6, 8, and 24 h), centrifuged at 16,000×g for 3 min, and diluted to an appropriate multiple. These diluted samples were then plated onto Tryptic Soy Agar (TSA) plates for enumeration. Following a 24 h incubation period at 37 °C, colonies on the TSA plates were counted for the CFU/mL, thereby providing insights into the time-dependent bactericidal activity of the tested compounds.

[7] = target: T2, FtsZ protein (Staphylococcus aureus, UniProt P0A031); assay: Affinity assay by SPR technology; assay type: binding, S. aureus
T2 construct: His tag; made in house; host or cells: E. coli BL21(DE3)
Description: FtsZ Pre-Enrichment: FtsZ purified protein was dissolved in deionized water and prepared into a 1 g/L protein stock solution. Afterwards, protein concentration was diluted to 50 mg/L, respectively, using four different pH acetate buffer solutions (pH 4.0, 4.5, 5.0, 5.5). Subsequently, samples were injected, and the response values of protein FtsZ under different pH conditions were detected using the Biacore pre-enrichment system to determine the optimal protein coupling conditions.
FtsZ Coupling: Before coupling, the CM5 chip was first activated by EDC/NHS solution for 7 min; then, protein coupling was carried out, with a coupling time of 10 min and a protein flow rate of 10 μL/min; finally, the unreacted active sites on the chip were blocked by ethanolamine for 7 min.
The compounds were dissolved in DMSO, and then diluted to 50 μM with PBS (final concentration of DMSO was 5%). The mobile phase was a PBS solution containing 5% DMSO. The response value of the samples flowing through the surface of the FtsZ protein was analyzed by the Biacore T200 system. The monomer compounds with a higher response value to FtsZ (higher than or equal to the positive control) were screened as candidate compounds.
The concentration of candidate compounds was diluted by gradient with a double ratio, with concentration ranging from 0 to 64 μM (the final concentration of DMSO was 5%). Then, the binding response value was obtained. Kinetic curves were drawn according to the dose–effect relationship between the response value and the concentration of candidate compounds, and the binding specificity of candidate compounds and FtsZ was determined according to the curve fitting. Thus, small molecular monomers that can bind specifically to the FtsZ protein were found.

## CC(C)(C)c1[nH]cnc1/C=c1\[nH]c(=O)/c(=C/c2ccccc2)[nH]c1=O [Compound 23, Plinabulin]
[1]; mice i.p. E. coli, i.p. compound, days 1 and 3
  bacterial count of peritoneal fluid: substantially mitigated
[1]; seven-day observation
  clinical presentation of infected mice: exhibited vitality, maintained a healthy appetite
[2]
  cell morphology of B. subtilis (elongation): the most pronounced effect
[3]; read-out: cell viability HT293 (293T)
  viability at 100 µM: 79%
[3]; read-out: cell viability LO2
  viability at 100 µM: 81%
[4]
  MIC: 64 µM (≈ 21.5 µg/mL)
[5]
  effect on FtsZ sedimentation (polymerization amount): markedly enhanced protein sedimentation
[6]
  logs of kill in time–kill: 3 logs
[7]
  Kd: 15.3 µM
[7]; SPR fit
  Chi^2: 0.234
[7]; SPR, CM5 chip
  Rmax: 11.82 RU
